# PMC5872323, “The Plant Defensin NaD1 Enters the Cytoplasm of Candida albicans via Endocytosis” (Journal of Fungi, 2018)
# Where no end group is shown, it is not given here.
# Key:
# [1] = tested on: C. albicans DAY185; settings: growth inhibition of C. albicans DAY185, previously reported; cited from earlier work
# [2] = tested on: C. albicans DAY286 (WT); test: Fungal growth inhibition assay, ESCRT wild type; type: cell-based, Candida albicans; settings: half-strength PDB, 30 °C, 24 h, absorbance 595 nm, IC50 ± standard deviation, n = 4
# Source text: (§1) All C. albicans strains were obtained from the fungal genetic stock centre and are described in [26, 27, 28]. Strains were derived from the BWP17 background strain (ura3::imm434/ura3::imm434 iro1/iro1::imm434 his1::hisG/his1::hisG arg4/arg4). The DAY185 wild-type C. albicans strain (ARG4+, URA3+, HIS1+) was used in most assays. For testing of C. albicans ESCRT mutants, DAY286 (ARG4+, URA3+, his1-) was used as the wild-type strain. C. albicans ESCRT (ARG4+, URA3+, his1-) mutants were produced by transposon insertion. Strains were grown in yeast extract-peptone dextrose (YPD) at 30 °C with shaking (250 rpm). For C. albicans mutant strains, YPD was supplemented with 80 µg/mL uridine.
# Fungal growth inhibition assays were performed essentially as described in [30]. Overnight cultures of C. albicans cells were diluted to 5000 cells/mL with half-strength PDB. For growth inhibition assays in the presence of latrunculin A, 80 µL of diluted C. albicans DAY185 cells were added to 10 µL of latrunculin A and 10 µL of NaD1 in a 96 well microtiter plate (Greiner, Kremsmünster, Austria) to final concentrations of 2.5, 3, 4 and 4.5 µM NaD1 and 0 or 20 μM latrunculin A (AdipoGen). […] Growth of cells was monitored by measuring absorbance at 595 nm in a SpectraMAX M5e plate reader (Molecular Devices, San Jose, CA, USA). […]
# [3] = tested on: C. albicans DAY185; test: Flow cytometry cell death assay (PI positive cells) at 30 °C or 4 °C; type: cell-based, Candida albicans; settings: 0, 5, 10 or 20 µM peptide, 5 µM PI, 30 min, half-strength PDB, three biological replicates
# Description: (§2) C. albicans DAY185 overnight cultures were diluted in half-strength potato dextrose broth (PDB) to an OD600 of 0.2 and grown for 3 h (30 °C, 250 rpm) before they were diluted again to an OD600 of 0.1 with half-strength PDB and used in cell death and NaD1 uptake assays. Cell death assays were conducted by treating 300 µL of C. albicans cells with 0, 5, 10 or 20 µM of native NaD1 or LL-37 and 5 µM PI. NaD1 uptake at 4 °C was measured by treating 300 µL of cells with 0, 5 or 10 µM BODIPY-labelled NaD1. All treatments were conducted for 30 min at either 30 °C or 4 °C without shaking and in the dark. […] For BODIPY-labelled NaD1, cells were excited at 488 nm and emission was detected using a 530/30 filter. For PI, cells were excited at 488 nm and emission was detected using a 670LP filter. Data were analysed using Weasel v3.0 (Walter and Eliza Hall Institute, Parkville, Australia).
# (§3) Figure 2 NaD1 induced cell death and uptake is reduced at 4 °C. […] PI (5 µM) was added for quantitation of cell death. Cells with PI fluorescence were counted using a flow cytometer to separate living and dead cells at both 30 °C (grey shading) and 4 °C (black line). Data is a representative example from three independent experiments; (Aii) The percentage of PI positive cells (percent cell death) relative to total cell counts was also calculated for three biological replicates and is shown in a bar graph. […]
# [4] = tested on: C. albicans bro1Δ; test: Fungal growth inhibition assay, ESCRT mutant; type: cell-based, Candida albicans; settings: half-strength PDB, 30 °C, 24 h, absorbance 595 nm, IC50 ± standard deviation, n = 4
# Source text: as §1
# (§4) Fungal growth inhibition assays were performed essentially as described in [30]. Overnight cultures of C. albicans cells were diluted to 5000 cells/mL with half-strength PDB. For growth inhibition assays in the presence of latrunculin A, 80 µL of diluted C. albicans DAY185 cells were added to 10 µL of latrunculin A and 10 µL of NaD1 in a 96 well microtiter plate (Greiner, Kremsmünster, Austria) to final concentrations of 2.5, 3, 4 and 4.5 µM NaD1 and 0 or 20 μM latrunculin A (AdipoGen). For brefeldin A and nocodazole assays, 80 µL of diluted C. albicans DAY185 cells was added to 10 µL of inhibitor and 10 µL of NaD1 in a microtiter plate. Brefeldin A (Sigma) and nocodazole where serially diluted (two-fold) down the plate with top final concentrations of 40 µM and 20 µM respectively. NaD1 was added to all wells at a final concentration of 2.5 µM. No-inhibitor controls were also included. For testing the antifungal activity of NaD1 against the C. albicans ESCRT mutants, 80 µL of diluted cells (DAY286 wild type and mutants) were added to 20 µL of NaD1 serially diluted from a top final concentration of 10 µM. All plates were incubated at 30 °C overnight without shaking. Growth of cells was monitored by measuring absorbance at 595 nm in a SpectraMAX M5e plate reader (Molecular Devices, San Jose, CA, USA). Measurements were taken at t = 0 and t = 24 h.
# [5] = tested on: C. albicans vps28Δ; test: Fungal growth inhibition assay, ESCRT mutant; type: cell-based, Candida albicans; settings: half-strength PDB, 30 °C, 24 h, absorbance 595 nm, IC50 ± standard deviation, n = 4
# Source text: as §1, §4
# [6] = tested on: C. albicans vps24Δ; test: Fungal growth inhibition assay, ESCRT mutant; type: cell-based, Candida albicans; settings: half-strength PDB, 30 °C, 24 h, absorbance 595 nm, IC50 ± standard deviation, n = 4
# Source text: as §1, §4
# [7] = tested on: C. albicans vps2Δ; test: Fungal growth inhibition assay, ESCRT mutant; type: cell-based, Candida albicans; settings: half-strength PDB, 30 °C, 24 h, absorbance 595 nm, IC50 ± standard deviation, n = 4
# Source text: as §1, §4
# [8] = tested on: C. albicans vps23Δ; test: Fungal growth inhibition assay, ESCRT mutant; type: cell-based, Candida albicans; settings: half-strength PDB, 30 °C, 24 h, absorbance 595 nm, IC50 ± standard deviation, n = 4
# Source text: as §1, §4
# [9] = tested on: C. albicans vps36Δ; test: Fungal growth inhibition assay, ESCRT mutant; type: cell-based, Candida albicans; settings: half-strength PDB, 30 °C, 24 h, absorbance 595 nm, IC50 ± standard deviation, n = 4
# Source text: as §1, §4
# [10] = tested on: C. albicans snf7Δ; test: Fungal growth inhibition assay, ESCRT mutant; type: cell-based, Candida albicans; settings: half-strength PDB, 30 °C, 24 h, absorbance 595 nm, IC50 ± standard deviation, n = 4
# Source text: as §1, §4
# [11] = tested on: C. albicans DAY185; test: Fungal growth inhibition assay; type: cell-based, Candida albicans; settings: half-strength PDB, 30 °C, 24 h, absorbance 595 nm, n = 3
# Description: as §4
# [12] = tested on: C. albicans DAY185; test: Confocal microscopy of BODIPY-NaD1 uptake after CCCP or latrunculin A pre-treatment (cell counts); type: cell-based, Candida albicans; settings: 0 µM CCCP (no-inhibitor control), 10 µM BODIPY-NaD1 for 10 min, n = 4
# Description: C. albicans DAY185 overnight cultures were diluted in half-strength potato dextrose broth (PDB; Becton Dickinson, Scoresby, Australia) to an OD600 of 0.2 and grown for a further three hours (30 °C, 250 rpm). Cells were then diluted to an OD600 of 0.3 with half-strength PDB. For time course experiments, 300 µL aliquots (in 1.5 mL microcentrifuge tubes) were pre-treated with 5 µM propidium iodide (PI; Sigma, St Louis, MO, USA) for 10 min prior to addition of BODIPY- labelled NaD1. For CCCP and latrunculin A experiments, yeast cells were pre-treated with 50 µM CCCP (Sigma) or 100 µM latrunculin A (AdipoGen, Liestal, Switzerland) for 2 h (30 °C, 250 rpm) before addition of 5 µM PI. BODIPY-NaD1 (10 µM) was then added and cells were monitored using a Zeiss LSM510/ConfoCor confocal with images taken every 5 sec. BODIPY was excited at 488 nm (Argon laser) and emission was detected at 505 to 530 nm. PI was excited at 561 nm (DPSS laser) and fluorescence was monitored at 575 to 615 nm. Images were captured using Zen2009 (Zeiss, Oberkochen, Germany) software and analysed using FIJI (Bethesda, Rockville, MD, USA). Brightness and contrast for Figure 1, Figure 3 and Figure 4 were adjusted using the auto-brightness/contrast function of FIJI.
# Figure 3 NaD1 uptake is reduced after treatment with CCCP. […]
# [13] = tested on: C. albicans DAY185; test: Flow cytometry BODIPY-NaD1 uptake at 30 °C or 4 °C; type: cell-based, Candida albicans; settings: 0, 5 or 10 µM BODIPY-NaD1, 30 min, half-strength PDB, three biological replicates
# Description: as §2, §3
Substance,IC50 [1],IC50 [2],cell death (PI positive cells) at 4 °C compared to 30 °C [3],IC50 [4],IC50 [5],IC50 [6],IC50 [7],IC50 [8],IC50 [9],IC50 [10],growth of cells with NaD1 plus brefeldin A versus NaD1 only ([11]; 2.5 µM NaD1 with 20 µM brefeldin A),"growth inhibition by NaD1 in the presence of latrunculin A ([11]; 2.5 µM NaD1 with 20 µM latrunculin A, 5000 cells/mL)",growth of cells with NaD1 plus nocodazole versus NaD1 only ([11]; 2.5 µM NaD1 with 20 µM nocodazole),"protection of cells from NaD1 by latrunculin A ([11]; 4 µM NaD1 with 20 µM latrunculin A, 5000 cells/mL)","cells with BODIPY-labelled NaD1 accumulated on the cell surface, relative to total cell counts [12]",cells containing BODIPY-labelled NaD1 in the cytoplasm at 4 °C compared to 30 °C [13]
"NaD1: plant defensin from ornamental tobacco, purified from the flowers of Nicotiana alata (RECKTESNTFPGICITKPPCRKACISEKFTDGHCSKILRRCLCTKPC; ends and bridges not checked; cysteine pairing not given here; UniProt Q8GTM0 26-72, looked up)",2300 ± 600 nM,1800 ± 490 nM,less cell death,2100 ± 350 nM,1600 ± 330 nM,2100 ± 330 nM,1800 ± 400 nM,1800 ± 430 nM,1700 ± 280 nM,1900 ± 450 nM,No significant difference,reduced,No significant difference,did not protect,,
"BODIPY-NaD1: NaD1 fluorescently labelled with BODIPY-FL-EDA (RECKTESNTFPGICITKPPCRKACISEKFTDGHCSKILRRCLCTKPC; BODIPY-FL-EDA label; UniProt Q8GTM0 26-72, looked up)",,,,,,,,,,,,,,,about 21%,Fewer cells
